The values that follow are results of earlier work, collected in US20030027808A1, “Farnesyl protein transferase inhibitor combinations with platinum compounds” (priority 2000, published 2003).

The series concerns colon cancer (LoVo). Particulars: in combination with cisplatin; in vitro LoVo colon cancer model; reported at 90th AACR Annual Meeting, Apr. 10-14, 1999.

Take `Cn1cncc1C(N)(c1ccc(Cl)cc1)c1ccc2c(c1)c(-c1cccc(Cl)c1)cc(=O)n2C` (single isomer, unassigned; (+)) [(+)-6-[amino(4-chlorophenyl)(1-methyl-1H-imidazol-5-yl)methyl]-4-(3-chlorophenyl)-1-methyl-2(1H)-quinolinone]: the “anti-tumor effect of the combination” value was “additive anti-tumor effect”.
